Test system: normal human dermal fibroblasts (NHDF)
Experiment: Gene expression in NHDF, full transcriptome analysis with Affymetrix U219 microarray
Format: cell-based
Conditions: NHDF, 7.5 mg/ml, 24 h
Procedure: In the present study, the transcriptional effects (modulation of gene expression) of compounds 1, 2, 3 and 4 were evaluated on normal human dermal fibroblasts (NHDF) under basal conditions.
More specifically, the comparative analysis of the different transcriptomic profiles was performed using an Affymetrix GeneAtlas platform and the human “full transcriptome” U219 chip, which includes 36,000 transcripts and variants.
Fibroblasts were seeded in 24-well plates and cultured in culture medium for 24 hours. The medium was then replaced by assay medium and cells were incubated for further 24 hours. The medium was replaced by assay medium containing or not (control) the test compounds at different concentrations and the cells were preincubated for 24 hours. All experimental conditions were performed in triplicate. At the end of incubation, the culture supernatants were removed and the cells were washed in a phosphate buffered saline (PBS) solution and immediately frozen at −80° C.
Before RNA extraction, the replicates were pooled. Total RNA was extracted from each sample using TriPure Isolation Reagent® according to the supplier's instructions. The amount and quality of total RNA were evaluated for all samples using capillary electrophoresis (Bioanalyzer 2100, Agilent technologies). From each RNA, a labeled and amplified anti-sens RNA (aRNA) was obtained using GeneChip 3′IVT PLUS Kit (Affymetrix). For each labeled and amplified aRNA sample the profiles were evaluated before and after fragmentation using capillary electrophoresis (Bioanalyzer 2100, Agilent technologies). Hybridization of fragmented aRNA onto Affymetrix® U219 chip (36,000 transcripts and variants) was performed in the GeneAtlas™ fluidics Affymetrix® hybridization station for 20 hours at 45° C. U219 chip was analyzed using the GeneAtlas™ Imaging station (Affymetrix®—resolution 2 μm) to generate fluorescence intensity data.
Expression Console and Quality controls: data were normalized with the Expression Console (Affymetrix®) software using RMA algorithm. Then a quality control of the labeling and the hybridization was performed. Hybridization and labeling steps successfully passed the quality controls for these experiments.
Data reduction, Excel file description: once normalized with Expression Console, data were transferred into a Microsoft Excel® file in order to go further into data reduction.
Calculation and tools were added in order to rank and sort data, and finally to support data interpretation. Detection thresholds in terms of fold change were defined and applied on normalized data.
Results are considered and presented or commented per gene (and not probe). A probe set is a collection of probes designed to interrogate a given sequence of a gene. For data interpretation, the most important relative expression value obtained with one probe is considered to be representative of the corresponding gene. The file contains the following data: • Relative expression (RE) for each sample, • Fold change calculation, • Gene information.

[1] = relative expression adjusted to detection limit (<20)

C[C@H](NC(=O)[C@@H](N)CCCCNCC(F)(F)[C@]1(O)O[C@H](CO)[C@H](O)[C@H](O)[C@H]1O)C(=O)O [Compound 2]
Fold change, APOD (vs control): 0.50 | Fold change, DHCR24 (vs control): 2.13 | Fold change, HACD1 (vs control): 2.01 | Fold change, NEU1 (vs control): 2.18 | Fold change, SERINC2 (vs control): 2.09 | Fold change, TM7SF2 (vs control): 2.18 | Fold change, TXNRD1 (vs control): 2.07 | Fold change, SCD (vs control, Affymetrix probe set 11715561_s_at): 2.01 | Fold change, SCD (vs control, Affymetrix probe set 11715562_x_at): 2.02 | Fold change, SCD (vs control, Affymetrix probe set 11715563_s_at): 2.07 | Fold change, FADS1 (vs control, Affymetrix probe set 11752670_a_at): 2.04 | Fold change, FADS1 (vs control, Affymetrix probe set 11755251_x_at): 2.19 | REadj2, APOD [1]: 174.26 | REadj2, DHCR24 [1]: 178.12 | REadj2, HACD1 [1]: 516.24 | REadj2, NEU1 [1]: 495.48 | REadj2, SERINC2 [1]: 245.33 | REadj2, TM7SF2 [1]: 88.53 | REadj2, TXNRD1 [1]: 1384.05 | REadj2, SCD (relative expression adjusted to detection limit (<20), Affymetrix probe set 11715561_s_at): 277.57 | REadj2, SCD (relative expression adjusted to detection limit (<20), Affymetrix probe set 11715562_x_at): 302.56 | REadj2, SCD (relative expression adjusted to detection limit (<20), Affymetrix probe set 11715563_s_at): 241.64 | REadj2, FADS1 (relative expression adjusted to detection limit (<20), Affymetrix probe set 11752670_a_at): 1734.26 | REadj2, FADS1 (relative expression adjusted to detection limit (<20), Affymetrix probe set 11755251_x_at): 1114.87

From US20220267380A1, “Glycopeptides Increasing Lipid Synthesis” (TFCHEM, priority 2019, published 2022)
